Activity data for four molecules are collected here from ChEMBL document CHEMBL1141838, “Application of lipase-catalyzed regioselective esterification in the preparation of digitonin derivatives” (J Nat Prod, 1999).

Each structure is given as a SMILES string.

The data set is described as follows: Toxic hemolytic activity against RBC assessed as hemolytic index. The format is ADME, cell-based. The following applies: erythrocyte.
As for `CC(=O)O[C@@H]1CO[C@@H](O[C@@H]2[C@@H](O)[C@H](O[C@@H]3[C@H](O)[C@@H](O[C@@H]4O[C@H](CO)[C@H](O)[C@H](O[C@@H]5O[C@H](CO)[C@@H](O)[C@H](O)[C@H]5O)[C@H]4O)[C@H](O[C@@H]4C[C@@H]5CC[C@H]6[C@@H]7[C@H](O)[C@@H]8O[C@]9(CC[C@@H](C)CO9)[C@@H](C)[C@@H]8[C@@]7(C)CC[C@@H]6[C@@]5(C)C[C@H]4O)O[C@@H]3CO)O[C@H](CO)[C@H]2O)[C@@H](O)[C@H]1O`, the Activity turned out to be 52000.

Turning to `C[C@@H]1CC[C@@]2(OC1)O[C@H]1[C@@H](O)[C@H]3[C@@H]4CC[C@H]5C[C@@H](O[C@@H]6O[C@H](CO)[C@H](O[C@@H]7O[C@H](CO)C(O)[C@H](O[C@@H]8OC[C@@H](O)[C@H](O)[C@H]8O)[C@H]7O[C@@H]7O[C@H](CO)[C@H](O)[C@H](O[C@@H]8O[C@H](CO)[C@@H](O)[C@H](O)[C@H]8O)[C@H]7O)[C@H](O)[C@H]6O)[C@H](O)C[C@]5(C)[C@H]4CC[C@]3(C)[C@H]1[C@@H]2C` (some centres undefined) [DIGITONIN], the Activity was 135000.

For the molecule `CC(=O)OC[C@H]1O[C@@H](O[C@H]2[C@@H](O)[C@@H](CO)O[C@@H](O[C@H]3[C@H](O[C@@H]4C[C@@H]5CC[C@H]6[C@@H]7[C@H](O)[C@@H]8O[C@]9(CC[C@@H](C)CO9)[C@@H](C)[C@@H]8[C@@]7(C)CC[C@@H]6[C@@]5(C)C[C@H]4O)O[C@H](CO)[C@H](O[C@@H]4O[C@H](CO)[C@@H](O)[C@H](O[C@@H]5OC[C@@H](O)[C@H](O)[C@@H]5O)[C@H]4O)[C@@H]3O)[C@@H]2O)[C@H](O)[C@@H](O)[C@@H]1O`, the Activity is reported as 40000.

Turning to `CC(=O)OC[C@H]1O[C@@H](O[C@H]2[C@@H](O)[C@@H](CO)O[C@@H](O[C@H]3[C@H](O[C@@H]4C[C@@H]5CC[C@H]6[C@@H]7[C@H](O)[C@@H]8O[C@]9(CC[C@@H](C)CO9)[C@@H](C)[C@@H]8[C@@]7(C)CC[C@@H]6[C@@]5(C)C[C@H]4O)O[C@H](CO)[C@H](O[C@@H]4O[C@H](CO)[C@@H](O)[C@H](O[C@@H]5OC[C@@H](OC(C)=O)[C@H](O)[C@@H]5O)[C@H]4O)[C@@H]3O)[C@@H]2O)[C@H](O)[C@@H](O)[C@@H]1O`, the Activity is listed as 43000.
